#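 48-hour exposure; five concentrations; linearly interpolated endpoints. The concentration for 50% growth inhibition is given as GI50. At the TGI there is no net growth.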
# How the values were obtained:
# Test in all cases: growth of human tumour cells (NCI), 48 h
# MDA-MB-231 breast = system: MDA-MB-231 breast
# MOLT-4 leukemia = system: MOLT-4 leukemia
# 786-0 renal = system: 786-0 renal
# CCRF-CEM leukemia = system: CCRF-CEM leukemia
# U251 CNS = system: U251 CNS
# HOP-92 NSCLC = system: HOP-92 NSCLC
# M14 melanoma = system: M14 melanoma
# T-47D breast = system: T-47D breast
# NCI/ADR-RES ovarian = system: NCI/ADR-RES ovarian
# HCT-15 colon = system: HCT-15 colon
# OVCAR-5 ovarian = system: OVCAR-5 ovarian
# HCT-116 colon = system: HCT-116 colon
# SNB-19 CNS = system: SNB-19 CNS
# SF-268 CNS = system: SF-268 CNS
# OVCAR-4 ovarian = system: OVCAR-4 ovarian
# UO-31 renal = system: UO-31 renal
# MCF7 breast = system: MCF7 breast
# HL-60(TB) leukemia = system: HL-60(TB) leukemia
# UACC-62 melanoma = system: UACC-62 melanoma
# LOX IMVI melanoma = system: LOX IMVI melanoma
# HS 578T breast = system: HS 578T breast
# A549 NSCLC = system: A549 NSCLC
# SF-539 CNS = system: SF-539 CNS
# IGROV1 ovarian = system: IGROV1 ovarian
# EKVX NSCLC = system: EKVX NSCLC
# KM12 colon = system: KM12 colon
# OVCAR-3 ovarian = system: OVCAR-3 ovarian
# TK-10 renal = system: TK-10 renal
smiles,measurement,setting,value
COc1cc(-c2csc(NC(=O)Nc3ccc(Cl)c(C(F)(F)F)c3)n2)cc(OC)c1OC,GI50,MDA-MB-231 breast,1470 nM
same,TGI,MDA-MB-231 breast,3930 nM
same,GI50,MOLT-4 leukemia,1130 nM
same,TGI,MOLT-4 leukemia,4350 nM
same,GI50,786-0 renal,2080 nM
same,TGI,786-0 renal,6470 nM
same,GI50,CCRF-CEM leukemia,2240 nM
same,TGI,CCRF-CEM leukemia,12800 nM
same,GI50,U251 CNS,1410 nM
same,TGI,U251 CNS,3190 nM
same,GI50,HOP-92 NSCLC,357 nM
same,TGI,HOP-92 NSCLC,2220 nM
same,GI50,M14 melanoma,2260 nM
same,TGI,M14 melanoma,7300 nM
same,GI50,T-47D breast,885 nM
same,TGI,T-47D breast,4070 nM
same,GI50,NCI/ADR-RES ovarian,1500 nM
same,TGI,NCI/ADR-RES ovarian,5530 nM
same,GI50,HCT-15 colon,1540 nM
same,TGI,HCT-15 colon,10700 nM
same,GI50,OVCAR-5 ovarian,2350 nM
same,TGI,OVCAR-5 ovarian,10500 nM
same,GI50,HCT-116 colon,1420 nM
same,TGI,HCT-116 colon,7930 nM
same,GI50,SNB-19 CNS,1930 nM
same,TGI,SNB-19 CNS,6970 nM
same,GI50,SF-268 CNS,2250 nM
same,TGI,SF-268 CNS,10400 nM
same,GI50,OVCAR-4 ovarian,1150 nM
same,TGI,OVCAR-4 ovarian,4530 nM
same,GI50,UO-31 renal,1650 nM
same,TGI,UO-31 renal,5640 nM
same,GI50,MCF7 breast,1870 nM
same,TGI,MCF7 breast,10100 nM
same,GI50,HL-60(TB) leukemia,1760 nM
same,TGI,HL-60(TB) leukemia,6050 nM
same,GI50,UACC-62 melanoma,1240 nM
same,TGI,UACC-62 melanoma,3750 nM
same,GI50,LOX IMVI melanoma,1530 nM
same,TGI,LOX IMVI melanoma,3480 nM
same,GI50,HS 578T breast,1670 nM
same,TGI,HS 578T breast,5470 nM
same,GI50,A549 NSCLC,1380 nM
same,TGI,A549 NSCLC,4750 nM
same,GI50,SF-539 CNS,1890 nM
same,TGI,SF-539 CNS,5470 nM
same,GI50,IGROV1 ovarian,1830 nM
same,TGI,IGROV1 ovarian,9300 nM
same,GI50,EKVX NSCLC,1190 nM
same,TGI,EKVX NSCLC,7030 nM
same,GI50,KM12 colon,764 nM
same,TGI,KM12 colon,4930 nM
same,GI50,OVCAR-3 ovarian,1160 nM
same,TGI,OVCAR-3 ovarian,3120 nM
same,GI50,TK-10 renal,1780 nM
same,TGI,TK-10 renal,5030 nM

# From PubChem BioAssay (NCI)
